Test results taken from patent publication US12318477B2, “Injectable and inhalable formulations” (CYBIN UK LTD, priority 2021, dated 2025).

Columns and labels:
[1] = according to the Human Metabolome Database (HMDB); cited from earlier work
[2] = pH-solubility in 0.5M Britton Robinson buffer at 25° C.; type: physicochemical; conditions: aqueous buffer, thermodynamic from solid, pH between about 4 and about 6
Description: Prior to adding N,N-dimethyltryptamine, a quantity of NaOH was added to the BR buffer as required to ensure the required pH. The total volume of BR buffer plus required amount of NaOH was 5 ml for each pH tested (pH 4, 5, 6, 7, 8, 9 & 10).

[3] = In vivo pharmacokinetic (PK) profile following intramuscular (IM) dosing in rats; conditions: rat

SMILES | stability in solution [1] | solubility [2] | plasma levels at 30 mins compared with undeuterated DMT ([3]; […] (as fumarate) IM dose) | Cmax compared with DMT (SPL026) ([3]; following IM dosing, p=0.005)
CN(C)CCc1c[nH]c2ccccc12 [N,N-Dimethyltryptamine, N,N-dimethyltryptamine] | degrades relatively quickly in solution | ≥ 90 mg/mL | – | –
O=C(O)/C=C/C(=O)O.[2H]C([2H])([2H])N(C([2H])([2H])[2H])C([2H])([2H])Cc1c[nH]c2ccccc12 [SPL028viii, α,α,bis-deuterio-N,N-hexadeuterio-dimethyltryptamine fumarate salt] | – | – | significantly higher plasma levels | significantly higher
